Reference: PubChem BioAssay AID2305 (GlaxoSmithKline (GSK), 2010)
Where “and” joins values, the source holds several entries; their conditions need not be identical. Equal values may be shown once.

What follows are compounds tested on P. falciparum 3D7 growth, pLDH absorbance (assay: P. falciparum 3D7 growth inhibition, dose response, strain 3D7 (AID 2305)).
Cc1ccccc1C1CCN(C2CCC(NC(=O)/C=C/c3cc(F)ccc3C(F)(F)F)CC2)CC1 (stereo not drawn) was tested, and the IC50 was 950 nM. In the case of Cc1ccc(NC(=O)Nc2cccc(Cl)c2)cc1-c1ccc(C(=O)Nc2ccncc2)cc1, the IC50 is reported as 740 nM. For CN1CCCC1CCNCc1cccc(-c2cnc(N3CCCC(C)(C)C3)nc2)c1 (stereo not drawn), the IC50 was 930 nM. In the case of COc1ccc2nccc(N(C)CC3(O)CCN(CCc4ccc5c(c4)NC(=O)CS5)CC3)c2n1, the IC50 is reported as 140 nM. CS(=O)(=O)N1CC2(CCN(CCC(NC(=O)/C=C/c3ccccc3)c3ccc(Cl)c(Cl)c3)CC2)c2ccccc21 (stereo not drawn) was tested, and the IC50 was 780 nM. For S=C(Nc1cccc(Cl)c1)NC1CCN(c2ccnc3cc(Cl)ccc23)C1 (stereo not drawn), the IC50 was 150 nM. O=C(Nc1ccc(Cl)c(Cl)c1)N1CCC(CN2CCC(c3c[nH]c4ccccc34)CC2)CC1 was tested, and the IC50 was 290 nM. Work on Cc1nc2nc(N)nc(N)c2c(C)c1Cc1ccc(O)cc1 yielded an IC50 of 240 nM. Work on O=C(Nc1ccc(OC2CCN(Cc3ccccc3)C2)c(Cl)c1)c1cccs1 (stereo not drawn) yielded an IC50 of 390 nM. O=C(/C=C/c1ccc(Cl)c(Cl)c1)NCCCCCN1CCC(CCCNC(=O)Nc2ccc(C(F)(F)F)cc2)CC1 showed an IC50 of 870 nM. In the case of CCOc1cc(C2C(C(=O)OC(C)C)=C(C)NC3=C2C(=O)CC(c2ccc(Cl)cc2)C3)ccc1OC(C)=O (stereo not drawn), the IC50 is reported as 930 nM. CC(=O)c1ccc(N2CCN(C(=O)Nc3ccc(Cl)cc3)CC2)cc1 gave an IC50 of 980 nM. Compound COC(=O)c1cccc(CNCc2ccc(-c3ccc(-c4nc5ccc(C(F)(F)F)cc5[nH]4)cc3)cc2)c1 has an IC50 of 300 nM. CN1CCCC(CN2CCN(Cc3ccc(-c4cccc(-c5nc6ccc(F)cc6[nH]5)c4)cc3)CC2)C1 (stereo not drawn) was tested, and the IC50 was 180 nM. With COc1ccc2nc(C)cc(NN=Cc3cc(C)ccc3O)c2c1 the IC50 was 140 nM. In the case of N=C(N)c1ccc2[nH]c(-c3cc4cc(C(=N)N)ccc4o3)cc2c1, the IC50 is reported as 180 nM. COc1cc(OC)c(NC(=O)C2c3ccccc3C(=O)N(C)C2c2cccs2)cc1Cl (stereo not drawn) showed an IC50 of 760 nM. Work on COc1ccnc(NCCCNCc2cn(S(=O)(=O)c3ccccc3)c3ccccc23)c1 yielded an IC50 of 790 nM. Work on COc1cccc(CCNCCCCCCNCCc2ccc(Cl)cc2)c1 yielded an IC50 of 1010 nM. O=C(NCCc1ccccc1)N(Cc1cccc(-c2ccc(CNCCc3ccccc3)cc2)c1)C1CCN(Cc2ccccc2)CC1 was tested, and the IC50 was 610 nM. For COc1ccc(CCNCc2ccc3nc(N)c(C)cc3c2)cc1, the IC50 was 990 nM. CC(C)=CCc1c(-c2ccc(O)cc2O)oc2c3c(cc(O)c2c1=O)OC(C)(C)C=C3 showed an IC50 of 980 nM. With COC(C(=O)OCCC1CCCN1C)(c1ccccc1)C1CCCCC1 (stereo not drawn) the IC50 was 710 nM. For CCN(CC)CCN(Cc1ccc(-c2ccc(C(F)(F)F)cc2)cc1)C(=O)Cn1c(/C=C/c2ccco2)nc(=O)c2ccccc21, the IC50 was 870 nM. Work on CC[C@H]1CN2CC[C@H]1C[C@H]2[C@H](O)c1cc(-c2ccc3ccccc3c2)nc2ccc(OC)cc12 yielded an IC50 of 100 nM. With COc1c(C2CCN(CCCCNC(=O)c3ccc(-c4ccc(C#N)cc4)cc3)CC2)ccc2c1C(C)(C)CCC2(C)C the IC50 was 410 nM. Compound COc1cc(NC(=O)c2cc([N+](=O)[O-])ccc2NC(=O)CNC2CCCC(C)C2C)cc(OC)c1 (stereo not drawn) has an IC50 of 1040 nM. Compound Cc1[nH]n(-c2cccc(Cl)c2)c(=O)c1-c1ccc(Cl)cc1 has an IC50 of 930 nM. CC(C)[C@H](NC(=O)c1ccc(O)c(-c2ccc(Cl)c(Cl)c2)c1)C(=O)NCCN1CCCCC1 gave an IC50 of 340 nM. CC1=C(C(=O)Nc2ccccc2)C(c2ccc([N+](=O)[O-])cc2)n2ncc(C(=O)Nc3ccccc3)c2N1 (stereo not drawn) showed an IC50 of 1240 nM. c1ccc(CCNCc2ccc(-c3ccc(CNc4ccc5ncccc5c4)cc3)cc2)cc1 gave an IC50 of 920 nM. Nc1ncc(-c2cn[nH]c2)cc1-c1nc2ccc(Cl)cc2[nH]1 gave an IC50 of 800 nM. Work on CC(=O)N(C)C1CCN(Cc2cccc(-c3ccc(-c4nc5ccc(C(F)(F)F)cc5[nH]4)cc3)c2)C1 (stereo not drawn) yielded an IC50 of 560 nM. In the case of Cc1nn(-c2ccccc2)c2nc(-c3ccccc3)cc(C(=O)N3CCOCC3)c12, the IC50 is reported as 870 nM. Compound CC(C)CCNC(=O)c1cnc2c(O)cccc2c1Nc1cccc(NC(=O)c2ccc(F)cc2)c1 has an IC50 of 910 nM. CCCC[C@H](NC(=O)OC(C)(C)C)C(=O)Nc1ccc(Cc2ccc(NC(=O)[C@H](CCCC)NC(=O)OC(C)(C)C)cc2)cc1 showed an IC50 of 730 nM. For Cc1cc(Oc2ccc(-n3ccnc3)cc2)nc(N2CCN(CCCN3CCCC3)CC2)n1, the IC50 was 930 nM. With CC(C)(C)c1cc(/C=C/C(=O)NC2CCC(CN3CCC(c4c[nH]c5ccccc45)CC3)CC2)cc(C(C)(C)C)c1O (stereo not drawn) the IC50 was 720 nM and 700 nM. Work on CCOc1ccccc1CNc1nccc(NCc2ccc(Cl)cc2Cl)n1 yielded an IC50 of 1100 nM. Work on CCCCCn1c(Sc2ccc(C#N)c([N+](=O)[O-])c2)nnc1-c1cccc(Cl)c1 yielded an IC50 of 770 nM. Work on CCCNCc1ccc(-c2ccc(CN(Cc3cnc(C)cn3)C(=O)/C=C/c3ccccc3C)cc2)nc1 yielded an IC50 of 920 nM. For CC(=O)c1cc(N2CCOCC2)ccc1N, the IC50 was 910 nM. Compound CCN(CC)CCN(Cc1ccc(-c2ccc(C(F)(F)F)cc2)cc1)C(=O)Cn1c(CCc2ccccc2F)nc(=O)c2ccccc21 has an IC50 of 930 nM. In the case of FC(F)c1nc2ccccc2n1-c1nc(N2CCOCC2)nc(N2CCOCC2)n1, the IC50 is reported as 760 nM. O=C(Nc1ccc(N2CCCCC2)c(Cl)c1)c1ccc(Br)o1 gave an IC50 of 550 nM. Compound COc1ccc(-c2ccc(CNCc3ccc(F)cc3)cc2)cc1S(=O)(=O)NCCN1CCCC1 has an IC50 of 730 nM. In the case of O=C(NC12CC3CC(CC(C3)C1)C2)C(=O)c1c[nH]c2ccccc12, the IC50 is reported as 230 nM. COc1ccc2c(NN=Cc3ccc(Cl)cc3)ccnc2c1 showed an IC50 of 870 nM.
